Laboratory results published in patent publication US9434743B2, “Indazole derivatives” (TAKEDA PHARMACEUTICAL COMPANY LIMITED, priority 2012, dated 2016).
pIC50: −log10 of the molar value.

Experiments:
human MetAP2 enzyme [1] = biological target: T1, human MetAP2 enzyme (Homo sapiens, UniProt P50579); assay: MetAP2 enzyme assay, enzyme complexed with cobalt ions; conditions: MetAP2 Co pIC50, MetAP2 enzyme complexed with cobalt ions; Met-AMC substrate at Km
human MetAP2 enzyme [2] = biological target: T1, human MetAP2 enzyme; assay: MetAP2 enzyme assay, enzyme complexed with manganese ions; conditions: MetAP2 Mn pIC50, MetAP2 enzyme complexed with manganese ions; Met-AMC substrate at Km
Procedure: DNA encoding the full-length sequence of human MetAP2 enzyme is amplified by PCR and cloned into a pFastBac expression vector (Invitrogen). Recombinant baculovirus incorporating the MetAP2 construct is generated by transposition using the Bac-to-Bac system (Invitrogen). The expression of recombinant protein is carried out by infection of Spodoptera frugiperda Sf9 cells (Invitrogen) in 5 L Wave Bioreactors (Wave Biotech). Recombinant protein is isolated from cellular extracts by binding to an SP Hitrap Fast Flow or SP Sepharose (Sigma) column, and the protein is eluted using a NaCl gradient. Partially purified extracts of MetAP2 are further purified by an AKTA FPLC over a Superdex-200 column (GE). The purity of MetAP2 protein is determined on denaturing SDS-PAGE gel.
The results for each well are expressed as percent inhibition and calculated using the equation:

T1 sequence (P50579 whole entry): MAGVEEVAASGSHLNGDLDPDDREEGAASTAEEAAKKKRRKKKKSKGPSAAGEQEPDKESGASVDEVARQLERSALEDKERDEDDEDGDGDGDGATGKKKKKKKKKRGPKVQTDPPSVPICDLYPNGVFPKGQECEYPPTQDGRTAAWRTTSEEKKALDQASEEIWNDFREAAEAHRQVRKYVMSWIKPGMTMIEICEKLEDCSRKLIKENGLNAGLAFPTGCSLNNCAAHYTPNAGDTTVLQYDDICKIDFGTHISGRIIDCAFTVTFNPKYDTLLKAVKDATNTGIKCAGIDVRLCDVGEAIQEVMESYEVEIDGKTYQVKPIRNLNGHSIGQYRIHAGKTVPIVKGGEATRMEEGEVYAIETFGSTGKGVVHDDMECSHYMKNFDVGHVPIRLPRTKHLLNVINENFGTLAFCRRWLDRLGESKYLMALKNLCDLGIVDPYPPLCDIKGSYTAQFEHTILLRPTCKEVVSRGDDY

| pIC50 (human MetAP2 enzyme [1]) | pIC50 (human MetAP2 enzyme [2]) | Structure (SMILES) |
| --- | --- | --- |
| 7.50 | 7.80 | Cc1nn(CC(N)=O)c(C)c1-c1cc(C(F)(F)F)cc2[nH]ncc12 [Example 173, 2-(3,5-dimethyl-4-(6-(trifluoromethyl)-1H-indazol-4-yl)-1H-pyrazol-1-yl)acetamide] |
| 7.20 | 7.90 | Cc1nn(CCC#N)c(C)c1-c1cc(C(F)(F)F)cc2[nH]ncc12 [Example 174, 3-(3,5-dimethyl-4-(6-(trifluoromethyl)-1H-indazol-4-yl)-1H-pyrazol-1-yl)propanenitrile] |
| 7.40 | 8.00 | CCn1ncc(-c2cc(C(F)(F)F)cc3[nH]ncc23)c1C [Example 175, 4-(1-ethyl-5-methyl-1H-pyrazol-4-yl)-6-(trifluoromethyl)-1H-indazole] |
| 7.40 | 7.90 | Cc1nn(CCN)c(C)c1-c1cc(C(F)(F)F)cc2[nH]ncc12 [Example 176, 2-(3,5-dimethyl-4-(6-(trifluoromethyl)-1H-indazol-4-yl)-1H-pyrazol-1-yl)ethanamine] |
| 7.30 | 8.40 | Cc1ncsc1-c1cc(C(F)(F)F)cc2[nH]ncc12 [Example 177, 4-methyl-5-(6-(trifluoromethyl)-1H-indazol-4-yl)thiazole] |
| 7.50 | 8.10 | CC(=O)Nc1ccc(-c2cc(C(F)(F)F)cc3[nH]ncc23)c(C)n1 [Example 178, N-(6-methyl-5-(6-(trifluoromethyl)-1H-indazol-4-yl)pyridin-2-yl)acetamide] |
| 7.60 | 8.00 | CC(=O)Nc1cc(C)c(-c2cc(C(F)(F)F)cc3[nH]ncc23)cn1 [Example 179, N-(4-methyl-5-(6-(trifluoromethyl)-1H-indazol-4-yl)pyridin-2-yl)acetamide] |
| 6.00 | 7.40 | OC(COc1ccccc1-c1cc(C(F)(F)F)cc2[nH]ncc12)CN1CCOCC1 (stereo not drawn) [Example 180, 1-morpholino-3-(2-(6-(trifluoromethyl)-1H-indazol-4-yl)phenoxy)propan-2-ol] |
| 7.80 | 8.30 | CNC(=O)c1ccc(OC)c(-c2cc(C(F)(F)F)cc3[nH]ncc23)c1 [Example 181, 4-methoxy-N-methyl-3-(6-(trifluoromethyl)-1H-indazol-4-yl)benzamide] |
| 6.10 | 7.60 | O=S(=O)(CCO)c1ccccc1-c1cc(C(F)(F)F)cc2[nH]ncc12 [Example 182, 2-(2-(6-(trifluoromethyl)-1H-indazol-4-yl)phenylsulfonyl)ethanol] |
| 6.50 | 7.40 | CN(C)S(=O)(=O)c1ccccc1-c1cc(C(F)(F)F)cc2[nH]ncc12 [Example 183, N,N-dimethyl-2-(6-(trifluoromethyl)-1H-indazol-4-yl)benzenesulfonamide] |
| 6.30 | 7.70 | COc1ccc(N)c(-c2cc(C(F)(F)F)cc3[nH]ncc23)n1 [Example 184, 6-methoxy-2-(6-(trifluoromethyl)-1H-indazol-4-yl)pyridin-3-amine] |
| 7.80 | 8.40 | COc1ccc(CO)cc1-c1cc(C(F)(F)F)cc2[nH]ncc12 [Example 185, (4-methoxy-3-(6-(trifluoromethyl)-1H-indazol-4-yl)phenyl)methanol] |
| 7.70 | 8.10 | Cc1cc(S(N)(=O)=O)ccc1-c1cc(C(F)(F)F)cc2[nH]ncc12 [Example 186, 3-methyl-4-(6-(trifluoromethyl)-1H-indazol-4-yl)benzenesulfonamide] |
| 7.10 | 8.10 | COc1ncc(N)cc1-c1cc(C(F)(F)F)cc2[nH]ncc12 [Example 187, 6-methoxy-5-(6-(trifluoromethyl)-1H-indazol-4-yl)pyridin-3-amine] |
| 5.80 | 7.10 | Cc1ccc(N)c(-c2cc(C(F)(F)F)cc3[nH]ncc23)n1 [Example 188, 6-methyl-2-(6-(trifluoromethyl)-1H-indazol-4-yl)pyridin-3-amine] |
| 7.30 | 8.30 | COc1ccc(-c2cc(C(F)(F)F)cc3[nH]ncc23)c(CO)c1 [Example 189, (5-methoxy-2-(6-(trifluoromethyl)-1H-indazol-4-yl)phenyl)methanol] |
| 6.70 | 7.40 | Cc1nc(N)nc(C)c1-c1cc(C(F)(F)F)cc2[nH]ncc12 [Example 190, 4,6-dimethyl-5-(6-(trifluoromethyl)-1H-indazol-4-yl)pyrimidin-2-amine] |
| 6.10 | 7.60 | Nc1nc(Cl)ncc1-c1cc(C(F)(F)F)cc2[nH]ncc12 [Example 191, 2-chloro-5-(6-(trifluoromethyl)-1H-indazol-4-yl)pyrimidin-4-amine] |
| 5.30 | 7.00 | O=C(O)c1ncncc1-c1cc(C(F)(F)F)cc2[nH]ncc12 [Example 192, 5-(6-(trifluoromethyl)-1H-indazol-4-yl)pyrimidine-4-carboxylic acid] |
| 7.20 | 8.20 | Cc1cnc(N)c(-c2cc(C(F)(F)F)cc3[nH]ncc23)c1 [Example 193, 5-methyl-3-(6-(trifluoromethyl)-1H-indazol-4-yl)pyridin-2-amine] |
| 6.80 | 8.00 | Nc1ncc(F)cc1-c1cc(C(F)(F)F)cc2[nH]ncc12 [Example 194, 5-fluoro-3-(6-(trifluoromethyl)-1H-indazol-4-yl)pyridin-2-amine] |
| 7.60 | 8.20 | Cc1nc2[nH]cnc2cc1-c1cc(C(F)(F)F)cc2[nH]ncc12 [Example 195, 5-methyl-6-(6-(trifluoromethyl)-1H-indazol-4-yl)-3H-imidazo[4,5-b]pyridine] |
| 7.20 | 8.20 | CNc1ncc(-c2cc(C(F)(F)F)cc3[nH]ncc23)cn1 [Example 196, N-methyl-5-(6-(trifluoromethyl)-1H-indazol-4-yl)pyrimidin-2-amine] |
| 7.20 | 8.20 | FC(F)(F)c1cc(-c2cnc(NC3CC3)nc2)c2cn[nH]c2c1 [Example 197, N-cyclopropyl-5-(6-(trifluoromethyl)-1H-indazol-4-yl)pyrimidin-2-amine] |
| 6.20 | 7.90 | N#Cc1ncc(-c2cc(C(F)(F)F)cc3[nH]ncc23)cn1 [Example 198, 5-(6-(trifluoromethyl)-1H-indazol-4-yl)pyrimidine-2-carbonitrile] |
| 6.30 | 6.80 | CCN1C(=O)C(=O)c2cc(C)cc(-c3cc(C(F)(F)F)cc4[nH]ncc34)c21 [Example 199, 1-ethyl-5-methyl-7-(6-(trifluoromethyl)-1H-indazol-4-yl)indoline-2,3-dione] |
| 6.50 | 7.30 | COc1ccc(C)nc1-c1cc(C(F)(F)F)cc2[nH]ncc12 [Example 200, 4-(3-methoxy-6-methylpyridin-2-yl)-6-(trifluoromethyl)-1H-indazole] |
| 6.10 | 7.70 | COc1ccc(-c2cc(C(F)(F)F)cc3[nH]ncc23)c(C(N)=O)n1 [Example 201, 6-methoxy-3-(6-(trifluoromethyl)-1H-indazol-4-yl)picolinamide] |
| 6.30 | 7.60 | O=C(Cn1cncn1)NCc1ccccc1-c1cc(C(F)(F)F)cc2[nH]ncc12 [Example 202, 2-(1H-1,2,4-triazol-1-yl)-N-(2-(6-(trifluoromethyl)-1H-indazol-4-yl)benzyl)acetamide] |
